Measurements taken from US4109011A, “Insecticide carbamates of N-(polychloroallyl)-amino-phenols” (priority 1975, dated 1978).
Read-outs that look alike come from different tables or passages of the source.

Tests used:
Assay type in all cases: in vivo
Macrosiphum Euphorbiae = assay: Biological activity on Macrosiphum euphorbiae (aphides), potato seedlings sprayed with aqueous dispersion
Protocol: Biological Activity on Macrosiphum Euphorbiae (Aphides)
Potato seedlings, cultivated in pots, were infested with adult aphide females and, after a few hours, were sprayed with an aqueous dispersion of the compounds listed in Table 6. The mortality percentage was determined 24 hours after the treatment (on control non-treated seedlings, the mortality percentage was 0).
(§1) To show the variation in activity from one compound to another, depending on the species used, the activities of compounds according to this invention were investigated at different concentrations, expressed as percent of active principle, on various infesting species. The mortality percentage was computed in the same way as in the preceding examples.

Pieris Brassicae [1] = assay: Persistence of insecticidal activity in the field, Pieris brassicae on cauliflower plants; settings: 0.5 percent; for mortality at 0.5 %: read-out: Mortality Percent of Pieris Brassicae Larvae
From the text: The persistence of insecticidal activity in the field using the insect Pieris brassicae was examined as follows:
Cauliflower plants grown under natural conditions in the field were sprinkled with an aqueous suspension of compounds according to this invention identified hereinabove as M 7361 and M 8157. For purposes of comparison, cauliflower plants were sprinkled with an aqueous suspension of a compound according to U.S. Pat. No. 3,819,678, identified hereinabove as M 7481.
After the respective time periods shown in Table 15, leaves of the sprinkled plants were picked and brought to the laboratory where they were infested with 10-day old larvae of Pieris brassicae and then kept under observation. The percent of mortality of the insects was determined 48 hours after infestation in all cases. The percent mortality of the control, unsprinkled cauliflower leaves, was zero.

Culex Pipiens = assay: Biological activity on Culex pipiens (mosquito larvae in aqueous dispersion); settings: read-out: % mort. Culex Pipiens
From the text: Biological Activity on Culex Pipiens (Diptera)
Mosquito larvae of the third and fourth ages were introduced into glass pots containing an aqueous dispersion of the compounds shown at 2 ppm and 0.2 ppm.
as §1

Spodoptera Littoralis [2] = assay: Biological activity on Spodoptera littoralis larvae, sprayed cut tobacco leaves; settings: 48 h, read-out: % mort. Spodopt. Littoralis
From the text: Biological Activity on Spodoptera Littoralis (Lepidoptera)
Cut tobacco leaves were sprayed with a 0.1% aqueous dispersion of compounds according to the present invention, shown in Table 12. After drying, the leaves were infested with 5-day old lepidopter larvae. The mortality percentage of the control was zero.
as §1

Pieris Brassicae [3] = assay: Biological activity on Pieris brassicae larvae, sprayed cut cauliflower leaves; settings: read-out: % mort. Pieris Brassicae
From the text: Biological Activity on Pieris Brassicae (Lepidoptera)
Cut leaves of cauliflower were sprayed with an aqueous dispersion of compound according to this invention at a 0.1% concentration. After drying, they were infested with 5-day old larvae. The mortality percentage of the control, untreated leaves, was zero.
as §1

[4] = tested on: Leptinotarsa Decimlineata; assay: Biological activity on Leptinotarsa decemlineata larvae, sprayed potato seedlings; settings: read-out: % mort. Leptinot. Decemlin.
From the text: Biological Activity on Leptinotarsa Decimlineata Coleoptera
Potato seedlings cultivated in pots were infested with 4-day old larvae and sprayed with an aqueous dispersion of the compounds according to this invention and Aminocarb as a comparison at doses of […]; respectively. The mortality percentage of the control, untreated seedlings, was zero.
as §1

Spodoptera Littoralis [5] = assay: Persistence of insecticidal activity in the field, Spodoptera littoralis on Ricinus plants; settings: one percent, read-out: Mortality Percent of Spodoptera Littoralis Larvae
From the text: The persistence of insecticidal activity in the field using the insect Spodoptera littoralis was examined as follows:
Ricinus plants grown in the field under natural conditions were sprinkled with an aqueous suspension of the insecticidal compounds according to this invention designated hereinabove as M 7361 and M 8157. For purposes of comparison, an aqueous suspension of each of M 7481 and M 7488, according to U.S. Pat. No. 3,819,678 and identified above, was sprinkled on similarly grown Ricinus plants.
After the time periods shown in Table 16, leaves of the sprinkled plants were picked and brought to the laboratory where they were infested with 10-day old larvae of Spodoptera littoralis and then kept under observation. The mortality percent of the control unsprinkled leaves was zero.

[6] = tested on: Leptinotarsa decemlineata; assay: Persistence of insecticidal activity in the field, Leptinotarsa decemlineata on potato plants; settings: 0.2 percent
From the text: The persistence of insecticidal activity in the field using the insect Leptinotarsa decemlineata was examined as follows:
Potato plants grown in the field under natural conditions were sprinkled with an aqueous suspension of compound M 7361 which is according to this invention and identified hereinabove. For purposes of comparison, similarly grown potato plants were sprinkled with an aqueous suspension of the compounds M 7488 and M 7481, respectively, both according to U.S. Pat. No. 3,819,678 and identified above.
After the time periods shown in Table 17, leaves of the sprinkled plants were picked and brought to the laboratory where they were infested with 10 day-old larvae of Leptinotarsa decemlineata and then kept under observation. After 48 hours, the percent of mortality of the insects was determined. The mortality percent of the control unsprinkled leaves was zero.

Tetranychus Urticae = assay: Biological activity on Tetranychus urticae eggs, bean leaf discs; settings: topical, read-out: % mort. Tetran. Urt. eggs
From the text: Biological Activity on Tetranychus Urticae (Acari)
Small discs of bean leaves were infested with acarus eggs and successively treated by spraying with an aqueous dispersion of a compound of this invention and Aminocarb as a comparison, at concentrations of 0.1 and 0.01%. The mortality percentage of the control, untreated discs, was zero.
as §1

Musca Domestica = assay: Biological activity on Musca domestica, topical application to adults; settings: 24 h, read-out: Percent of Mortality
Protocol: Biological Activity on Musca Domestica (Diptera)
Four day old adults were treated by topical application through a microsyringe with 1 mm^3 of an acetonic solution of the compounds shown in such concentrations that they received doses of 5γ/insect; 2γ/insect; 0.5γ/insect of active principle. The mortality percentage 24 hours after the treatment is reported in Table 8 (mortality of insects treated with 1 mm^3 of acetone = 0).

[7] = 120 h, 5 days after field treatment
[8] = 216 h, 9 days after field treatment
[9] = 336 h, 14 days after field treatment
[10] = 408 h, 17 days after field treatment
[11] = 528 h, 22 days after field treatment
[12] = 264 h, 11 days after field treatment
[13] = 432 h, 18 days after field treatment
[14] = 600 h, 25 days after field treatment
[15] = 96 h, 4 days after field treatment
[16] = 168 h, 7 days after field treatment
[17] = read-out: % mort. Macrosiphum Euphorbiae

Structure (SMILES)	period for which insecticidal activity is fully retained in the field (Pieris Brassicae [1])	mortality at 0.5 % (Pieris Brassicae [1]; 2 hours after field treatment) [%]	mortality at 0.5 % (Pieris Brassicae [1]; [7]) [%]	mortality at 0.5 % (Pieris Brassicae [1]; [8]) [%]	mortality at 0.5 % (Pieris Brassicae [1]; [9]) [%]	mortality at 0.5 % (Pieris Brassicae [1]; [10]) [%]	mortality at 0.5 % (Pieris Brassicae [1]; [11]) [%]	mortality at 1 % (Spodoptera Littoralis [5]; [7]) [%]	mortality at 1 % (Spodoptera Littoralis [5]; [12]) [%]	mortality at 1 % (Spodoptera Littoralis [5]; [9]) [%]	mortality at 1 % (Spodoptera Littoralis [5]; [13]) [%]	mortality at 1 % (Spodoptera Littoralis [5]; [14]) [%]	mortality at 1 % (Spodoptera Littoralis [5]; 2 hours after field treatment) [%]	mortality at 0.2 % ([6]; 2 hours after field treatment) [%]	mortality at 0.2 % [6, 15] [%]	mortality at 0.2 % [6, 16] [%]	mortality at 0.2 % [6, 12] [%]	mortality at 0.2 % [6, 13] [%]	mortality at 0.2 % [6, 14] [%]	other results
CNC(=O)Oc1cc(C)ccc1NCC(Cl)=C(Cl)Cl [M 6773, N-methylcarbamate of 3-methyl-6-(2,3,3-trichloroallylamino)-phenol]																				mortality at 0.01 % (Macrosiphum Euphorbiae; 24 h, read-out: Mortality Percent): 75%
CNC(=O)Oc1cc(C)c(NCC=C(Cl)Cl)c(C)c1 [M 7361]	at least 22 days	100	100	100	100	100	100	100	100	100	100	100	100	100	100	100	100	100	73	mortality at 2 ppm (Culex Pipiens): 40%; mortality at 0.01 % (Spodoptera Littoralis [2]; Table 14, 0.01% a.p.): 7%; mortality at 0.1 % (Spodoptera Littoralis [2]; Table 14, 0.1% a.p.): 72%; mortality at 1 % (Spodoptera Littoralis [2]; Table 14, 1% a.p.): 100%; mortality at 0.01 % (Pieris Brassicae [3]; Table 14, 0.01% a.p.): 15%; mortality at 0.1 % (Pieris Brassicae [3]; Table 14, 0.1% a.p.): 97%; mortality at 1 % (Pieris Brassicae [3]; Table 14, 1% a.p.): 100%; mortality at 0.01 % [4]: 52%; mortality at 0.1 % [4]: 97%; mortality at 1 % [4]: 100%; mortality at 0.01 % (Macrosiphum Euphorbiae; [17]): 17%; mortality at 0.1 % (Macrosiphum Euphorbiae; [17]): 81%; mortality at 1 % (Macrosiphum Euphorbiae; [17]): 100%; mortality at 1 % (Tetranychus Urticae): 13%
CNC(=O)Oc1cc(C)c(N(C)CC=C(Cl)Cl)c(C)c1 [M 7481, reference compound]		100	55	30	0	0	0	100	77	60	47	40	100	100	60	20	0	0	0	time after which totally ineffective in the field (Pieris Brassicae [1]): 14 days; time at which activity begins to be lost in the field (Pieris Brassicae [1]): 2 to 5 days
CNC(=O)Oc1cc(C)c(N(CC=C(Cl)Cl)CC=C(Cl)Cl)c(C)c1 [M 7488, reference compound]								92	47	38	22	0	100	100	70	20	10	0	0	
CNC(=O)Oc1cc(C)c(NCC(Cl)=C(Cl)Cl)c(C)c1 [M 8157]	at least 22 days	100	100	100	100	100	100	100	100	100	100	100	100							
CNC(=O)Oc1cc(C)c(N(C)C)c(C)c1 [Zectran, reference compound]																				mortality at 0.5 µg/insect (Musca Domestica): 0%; mortality at 2 µg/insect (Musca Domestica): 60%
